In paper PMC11011685, “4-(Azolyl)-Benzamidines as a Novel Chemotype for ASIC1a Inhibitors” (International Journal of Molecular Sciences, 2024):

What was measured:
Type in all cases: cell-based
human ASIC1a (hASIC1a) [1] = molecular target: T1, human ASIC1a (hASIC1a) (Homo sapiens, UniProt P78348); assay: whole-cell patch clamp, residual current I/Io at […] (recovery […]); conditions: 100 µM
T1 construct: gene ASIC1; native hASIC1a endogenously expressed in HEK 293 cells
T1 sequence (P78348 1-528): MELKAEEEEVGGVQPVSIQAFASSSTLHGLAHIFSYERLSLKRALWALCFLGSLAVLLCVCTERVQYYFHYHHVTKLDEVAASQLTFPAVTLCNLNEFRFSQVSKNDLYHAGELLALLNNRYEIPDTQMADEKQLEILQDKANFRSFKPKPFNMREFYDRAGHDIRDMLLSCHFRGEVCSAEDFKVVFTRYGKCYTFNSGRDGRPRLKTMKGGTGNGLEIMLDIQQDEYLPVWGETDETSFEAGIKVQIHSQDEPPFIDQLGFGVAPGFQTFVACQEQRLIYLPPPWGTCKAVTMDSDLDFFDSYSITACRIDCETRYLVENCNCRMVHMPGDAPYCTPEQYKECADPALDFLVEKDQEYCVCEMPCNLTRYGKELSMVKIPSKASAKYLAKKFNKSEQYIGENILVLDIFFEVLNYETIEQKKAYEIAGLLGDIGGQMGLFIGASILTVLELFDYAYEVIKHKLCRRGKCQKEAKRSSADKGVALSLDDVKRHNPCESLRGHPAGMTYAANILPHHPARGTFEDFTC

human ASIC1a (hASIC1a) [2] = molecular target: T1, human ASIC1a (hASIC1a); assay: whole-cell patch clamp, residual current I/Io at […] (weak); conditions: 100 µM
human ASIC1a (hASIC1a) [3] = molecular target: T1, human ASIC1a (hASIC1a); assay: whole-cell patch clamp, residual current I/Io at […]; conditions: 100 µM
human ASIC1a (hASIC1a) [4] = molecular target: T1, human ASIC1a (hASIC1a); assay: whole-cell patch clamp, pH […] to […] evoked current, dose-response

EN300-256317
I/Io (Mean ± SD), % (human ASIC1a (hASIC1a) [1]): 7 ± 2 % I/Io at 100 µM

EN300-256318
I/Io (Mean ± SD), % (human ASIC1a (hASIC1a) [2]): 76 ± 7 % I/Io at 100 µM

EN300-257412
I/Io (Mean ± SD), % (human ASIC1a (hASIC1a) [3]): 37 ± 8 % I/Io at 100 µM

EN300-257539
IC50 (human ASIC1a (hASIC1a) [4]): 3.5 ± 0.5 µM

EN300-262584
I/Io (Mean ± SD), % (human ASIC1a (hASIC1a) [3]): 19 ± 8 % I/Io at 100 µM

EN300-264105
IC50 (human ASIC1a (hASIC1a) [4]): 6 ± 0.6 µM

EN300-268551
IC50 (human ASIC1a (hASIC1a) [4]): 25 ± 2 µM

EN300-2324118
I/Io (Mean ± SD), % (human ASIC1a (hASIC1a) [2]): 65 ± 3 % I/Io at 100 µM
